From patent US20030211475A1, “Methods for identifying pathway-specific reporters and target genes, and uses thereof” (Rosetta Inpharmatics, Inc., priority 1999, published 2003)

Tested on: ergosterol pathway
Assay: DNA microarray transcript profiling of clotrimazole-treated yeast

## Clc1ccccc1C(c1ccccc1)(c1ccccc1)n1ccnc1 [Clotrimazole, clotrimazole]
Clotrimazole titration
  YPL272C expression in response to drug treatment (titration plot, FIG. 13): induced to a high level
wild-type strain R174, YPD, 30° C., 12 hours, 0.03, 0.1, 1.0, and 3.0 ug/ml
  number of genes upregulated by treatment: ~500
